Assay results taken from patent US11040053B2, “Compositions and methods for activating “stimulator of interferon gene”13 dependent signalling” (CHINOOK THERAPEUTICS, INC., priority 2015, dated 2021).
Entries after “also recorded” stand apart in the source; their conditions may differ.

Experiments:
[1] = target: T1, hSTING(REF) (Homo sapiens, UniProt Q86WV6); experiment: IFN-β luciferase reporter in HEK293T cells stably expressing hSTING(REF), digitonin permeabilization; details: FIGS. 6A-B, 0.1 μM to 100 μM and 6.25 μM CDN
Target sequence in this assay (Q86WV6 whole entry): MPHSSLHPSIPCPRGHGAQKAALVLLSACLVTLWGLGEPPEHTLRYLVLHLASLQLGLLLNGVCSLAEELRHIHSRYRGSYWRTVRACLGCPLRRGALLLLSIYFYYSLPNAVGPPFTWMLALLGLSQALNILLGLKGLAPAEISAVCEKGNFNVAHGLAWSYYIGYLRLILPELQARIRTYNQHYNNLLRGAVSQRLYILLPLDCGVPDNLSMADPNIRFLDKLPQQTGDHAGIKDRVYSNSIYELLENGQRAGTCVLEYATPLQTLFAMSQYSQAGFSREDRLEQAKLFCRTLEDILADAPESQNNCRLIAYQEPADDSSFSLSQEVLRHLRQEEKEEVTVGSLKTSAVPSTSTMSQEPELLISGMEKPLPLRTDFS
Experimental: 24 hours later, cells were stimulated with native and synthetic CDN derivative molecules using digitonin permeabilization to ensure uniform uptake.
After 20 min, the stimulation mixtures were removed and 200 ul of DMEM media supplemented with 10% (vol/vol) fetal bovine serum, 1% L-Glutamine, and 1% Penicillin/Streptomycin was added. Cells were incubated an additional 6 hours (37° C., 5% CO2) and then cell lysates were prepared and reporter gene activity measured on a Spectramax M3 luminometer using the Dual-Glo Luciferase Assay System (Promega, catalog #E2920) as described by the manufacturer. IFNβ firefly luciferase reporter gene activity was normalized to TK renilla luciferase gene activity and plotted as fold induction over activity in unstimulated cells (mean+/−s.e.m.).

[2] = target: T2, wild type (WT) STING allele (Homo sapiens, UniProt Q86WV6, H232R); experiment: Cytokine transcript induction (qRT-PCR) in STING^WT/WT hPBMCs; format: cell-based; details: FIGS. 7A-B, 2 hours stimulation, 100 μM to 0.1 μM
T2 construct: one donor was homozygous for the wild type (WT) STING allele; endogenous in cells; host or cells: human PBMCs, donor STING WT/WT
Experimental: (§1) The induction of type I interferon was measured in human primary blood mononuclear cells (hPBMCs) to evaluate the potency of mono- or di-F-CDN compounds as described herein. hPBMCs from two unique donors were used: one donor was homozygous for the wild type (WT) STING allele (STING^WT/WT) and the other donor was homozygous for the so-called reference (REF) STING allele (STING^REF/REF). The STING genotype of these donors was determined by PCR amplification and sequencing: genomic DNA was isolated from 10^4 hPBMCs using Quick Extract DNA Extraction Solution (Epicentre) and was used to amplify regions of exon 3, 6, and 7 of the human STING gene.
(§2) Cells were incubated at 37° C., 5% CO2 with concentrations ranging from 100 μM to 0.1 μM of each CDN. After 2 hours (FIGS. 7 and 8) or 2 hours and 6 hours (FIGS. 9-13) stimulation, cells were harvested by centrifugation and washed once with phosphate-buffered saline. Cellular RNA was isolated using the Aurum Total RNA 96 Kit and cDNA was synthesized using the iScript cDNA Synthesis Kit. Target and reference gene expression was assessed by real-time qRT-PCR using PrimePCR probe assays and the CFX96 gene cycler (all reagents and equipment from BioRad). Normalized IFNβ expression was expressed relative to untreated cells. Target genes included type I interferon (IFNβ), Th1-associated cytokines (IFNγ, IL-12p40) and NF-kB dependent inflammatory cytokines (TNFα, IL-6). Reference genes included GUSB alone (FIGS. 7 and 8) or GUSB and HSP90AB1 (FIGS. 9-13).

[3] = target: hSTING(WT) (Homo sapiens, UniProt Q86WV6, H232R); experiment: Differential scanning fluorometry (DSF) binding to purified hSTING WT; set-up: DNA encoding amino acids 140-379 (amino acid numbering corresponding to Swiss Prot Q86WV6); 6xHIS (N, cleaved yes); SUMO (N, cleaved yes); made in house; host or cells: Rosetta2 (DE3) E. coli; details: DSF, 1 mg/ml STING AA140-379, ligand 1 mM
[4] = target: T3, hSTING HAQ allele (Homo sapiens, UniProt Q86WV6, G230A/H232R/R293Q/R71H); experiment: IRF-3 inducible secreted luciferase reporter in THP1-Dual cells without digitonin; format: cell-based; details: without digitonin in THP1 cells (HAQ allele)
T3 construct: a human monocyte cell line containing the hSTING HAQ allele; host or cells: THP1-Dual cells
How it was run: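 THP1-Dual cells were exposed for 30 min, washed, and cultured overnight at 37 °C in fresh RPMI/10% FBS. Secreted luciferase in the supernatant was read with QUANTI-Luc as the type I interferon signal. EC50 was taken from a 10-point serial-dilution dose-response curve.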

[5] = system: B16.SIY cells; experiment: B16.SIY melanoma mouse model, intra-tumoral injection; format: in vivo, C57BL/6 mice; details: FIG. 14B, 5 μg IT, day 7 post-IT injection, vs HBSS control
Experimental: To determine whether the derivative molecules elicit anti-tumor immunity, 6-8 week old female C57BL/6 mice (8 mice per group) were implanted with B16.SIY cells (5×10^5 cells in 100 μL PBS). Mice were treated with reference compound 3′3′-RR-(A)(A) and di-F compound 3′3′-RR-(2′F-A)(2′F-A) (5, 50, 100 μg in a total volume of 40 μL HBSS), or HBSS vehicle control. Treatments began when tumors reached a volume of approximately 100 mm^3, on day 9 post tumor implantation. The CDN compounds were administered by […] injection into the center of the tumor (IT) using a 27 gauge needle. Mice were bled on day 16 post tumor implantation and PBMCs were isolated by Ficoll gradient (Miltenyi Biotech). 1×10^5 PBMCs were pre-incubated with anti-CD16/32 monoclonal antibody to block potential nonspecific binding, and labeled with PE-MHC class I pentamer (Proimmune) consisting of murine H-2Kb complexed to […] (SIY, SEQ ID NO: 16) peptide, anti-TCRβ-AF700 (H57-597), anti-CD8-Pacific Blue (53-6.7), anti-CD4-Pacific Orange (RM4-5) (all antibodies from BioLegend) and the Fixable Viability Dye eFluor 450 (eBioscience). Stained cells were analyzed using FACS Versa cytometer with FACSDiva software (BD). Data analysis was conducted with FlowJo software (Tree Star).

[6] = target: T4, HAQ allele hSTING (Homo sapiens, UniProt Q86WV6, G230A/H232R/R293Q); experiment: Differential scanning fluorometry (DSF) binding to purified hSTING HAQ allele; details: DSF, 1 mg/ml STING AA140-379, ligand 1 mM
T4 construct: DNA encoding amino acids 140-379 (amino acid numbering corresponding to Swiss Prot Q86WV6); 6xHIS (N, cleaved yes); SUMO (N, cleaved yes); made in house; host or cells: Rosetta2 (DE3) E. coli

[7] = target: T5, reference (REF) STING allele (Homo sapiens, UniProt Q86WV6); experiment: Cytokine transcript induction (qRT-PCR) in STING^REF/REF hPBMCs; format: cell-based; details: FIGS. 8A-B, 2 hours stimulation, 100 μM to 0.1 μM
T5 construct: endogenous in cells
Experimental: as §1, §2

[8] = target: T1, hSTING(REF); experiment: Differential scanning fluorometry (DSF) binding to purified hSTING REF allele; set-up: DNA encoding amino acids 140-379 (amino acid numbering corresponding to Swiss Prot Q86WV6); 6xHIS (N, cleaved yes); SUMO (N, cleaved yes); made in house; host or cells: Rosetta2 (DE3) E. coli; details: DSF, 1 mg/ml STING AA140-379, ligand 1 mM
Target sequence in this assay (Q86WV6 140-379): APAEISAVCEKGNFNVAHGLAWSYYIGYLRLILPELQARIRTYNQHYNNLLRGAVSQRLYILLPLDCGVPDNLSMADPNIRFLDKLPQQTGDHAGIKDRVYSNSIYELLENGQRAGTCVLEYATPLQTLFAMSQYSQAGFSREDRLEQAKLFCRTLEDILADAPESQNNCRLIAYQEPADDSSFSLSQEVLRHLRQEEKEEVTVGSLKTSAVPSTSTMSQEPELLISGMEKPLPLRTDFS

T2 sequence (Q86WV6 whole entry H232R): as the sequence (Q86WV6 whole entry) above, with H232R counted along it
hSTING(WT), sequence (Q86WV6 140-379 H232R): as the sequence (Q86WV6 140-379) above, with H93R counted along it
T4 sequence (Q86WV6 140-379 G230A/H232R/R293Q limits assumed): as the sequence (Q86WV6 140-379) above, with G91A, H93R, R154Q counted along it
T5 sequence (Q86WV6 whole entry): as the sequence (Q86WV6 whole entry) above
T3 sequence (Q86WV6 whole entry R71H/G230A/H232R/R293Q): as the sequence (Q86WV6 whole entry) above, with R71H, G230A, H232R, R293Q counted along it

For Nc1ncnc2c1ncn2[C@@H]1O[C@@H]2CO[P@@](=O)(S)O[C@H]3[C@@H](O)[C@H](n4cnc5c(N)ncnc54)O[C@@H]3CO[P@@](=O)(S)O[C@H]2[C@H]1O [3'3'-RR-(A)(A), reference compound], the “IFNβ luciferase reporter induction by hSTING(REF), in words” value [1] was “responded poorly”, the “relative normalized IFNβ expression, in words” value [2] was “induced similar levels of IFNβ; also recorded: induced higher levels of IFNβ transcript when compared to the 3′3′-(A)(A) compound” and the “hSTING Tm Shift WT” value [3] was 9.6 °C. For the same compound, the EC50 [4] was 25 µM, the “percent of SIY-specific CD8+ T cells in PBMCs, in words” value [5] was “elicited significantly SIY-specific CD8^+ T cells” and the “hSTING Tm Shift HAQ” value [6] was 15.5 °C. For the same compound, the “relative normalized IFNβ expression, in words” value [7] was “did not stimulate production of appreciable IFNβ transcript levels” and the “hSTING Tm Shift REF” value [8] was 5.7 °C.
